Data: patent US8818734B1, “Peptide ligands for sperm DNA fragmentation assay” (priority 2011, dated 2014)

Columns and labels:
Type in all cases: cell-based
human spermatozoa [1] = assay: Induction of single-strand DNA damage with H2O2: DW1 staining of ethanol-fixed slides, SCDt, alkaline comet assay; settings: 0.03 and 0.3% H2O2, 30 min, p<0.05
Description: Five human sperm samples were washed in PBS (220 g, 10 min), diluted to a concentration of 10×10^6 spermatozoa/ml in PBS (Fischer Scientific International, Pittsburgh, Pa., USA) and divided into three aliquots of 200 μl each, allowing a control group to be compared with the treated cells. To induce single-strand DNA damage (Yamamoto, 1969), spermatozoa were incubated with 0.03 and 0.3% H2O2 (Sigma, St Louis, Mo., USA) for 30 min at room temperature.
(§1) Control, H2O2 (0.03% and 0.3%) and Bleomycin (2 and 4 mg/ml)-treated sperm samples were used for this purpose. Ten fields per sample were captured as described above in the Fluorescence microscopy evaluation and image capture section using a fixed exposure time. A total of 300 sperm cells per slide were analysed.
One way-ANOVA and Dunnett's Test for multiple comparisons with a single control were used to detect significant differences in the frequencies of SDF calculated by SCDt and alkaline comet assay between the control and each one of the treatments, 0.03% and 0.3% H2O2.

human spermatozoa [2] = assay: Induction of double-strand DNA damage with Bleomycin: DW1 staining of ethanol-fixed slides, SCDt, neutral comet assay; settings: 2 and 4 mg/ml Bleomycin, 3 h, 37° C., p<0.05
Description: Five human sperm samples were washed in PBS (220 g, 10 min), diluted to a concentration of 10×10^6 spermatozoa/ml in PBS (Fischer Scientific International, Pittsburgh, Pa., USA) and divided into three aliquots of 200 μl each, allowing a control group to be compared with the treated cells. To induce double-strand DNA damage, spermatozoa were incubated with 2 and 4 mg/ml of Bleomycin (Sigma, St Louis, Mo., USA) for 3 h at 37° C.
as §1
A Mann-Whitney U test was used to detect significant differences in the frequencies of SDF calculated by SCDt and neutral comet assay between the control and each one of the treatments, 2 mg/ml and 4 mg/ml of bleomycin.

spermatozoa = assay: Access of TAT-modified DW1 to the cell interior; settings: DW1 modified to include TAT peptide YGRKKRRQRRRG
Description: However, it is possible that different TAT configurations or the use of an alternative protein transduction domain might allow penetration into the cell interior. […] It is still possible that the peptide could be used to choose spermatozoa for fertilization using ICSI following removal of membranes using detergent. Previous studies have shown that sperm treated in this way remain fertilizations competent (Kasai et al., 1999). […] Electroporation is known not to inhibit sperm viability and ICSI procedures.

## OO [H2O2, Hydrogen Peroxide]
Human spermatozoa [1]
  frequency of sperm cells with fragmented DNA by SCDt (SCDt-SDF) and alkaline comet assay (ssSDF): significant increase

## Bleomycin
Human spermatozoa [2]
  frequency of sperm cells with fragmented DNA by SCDt (SCDt-SDF) and neutral comet assay (dsSDF): significantly increased

## DW1 (SEQ ID NO:1) to include a TAT peptide: DW1 modified to include a TAT peptide (YGRKKRRQRRRG), a transduction sequence (GSRAHSSHLKSKKGQSTSRHKKYGRKKRRQRRRG; listed as Homo sapiens)
spermatozoa
  access to the cell interior: failed to improve access to the cell interior
